From patent US10278929B2, “Identification of stabilizers of multimeric proteins” (The Board of Trustees of the Leland Stanford Junior …, priority 2010, dated 2019)
Values joined by “and” are separate entries in the source; they are usually repeats but may differ in a detail not shown here. Equal values may be shown once. Read-outs that look alike come from different tables or passages of the source.

Key:
[1] = tested on: WT TTR cytotoxicity in IMR-32 neuroblastoma cells; assay: Inhibition of WT TTR-induced cytotoxicity, resazurin reduction; conditions: TTR and ligand 8 μM, 24 h
[2] = tested on: V1221 TTR cytotoxicity in AC16 cardiac cells; assay: Inhibition of V1221 TTR-induced cytotoxicity, resazurin reduction; conditions: TTR and ligand 8 μM, 24 h
[3] = target: T1, TTR (Homo sapiens (Human), UniProt P02766); assay: Fluorescence polarization displacement of probe 5 from TTR; conditions: probe 5 100 nM, TTR 200 nM
[4] = target: human TTR (wild type, from human plasma) (Homo sapiens (Human), UniProt P02766); assay: Isothermal titration calorimetry (ITC) of ligands against TTR; assay type: binding; conditions: 5 versus 4
Method: Calorimetric titrations were carried out on a VP-ITC calorimeter (MicroCal, Northhampton, Mass.). […] Prior to each titration, all samples were degassed for 10 minutes. The initial injection of 3.0 μL was followed by 30 injections of 8.0 μL each (25° C.) to the point that TTR was fully saturated with ligand. Integration of the thermogram after subtraction of blanks yielded a binding isotherm that was analyzed with MicroCal Origin 5.0 software.

[5] = target: WT TTR (Homo sapiens (Human), UniProt P02766); assay: Acid-mediated fibril formation (turbidity) assay for TTR amyloidogenesis
[6] = target: wild type biotinylated TTR (Homo sapiens (Human), UniProt P02766); assay: Surface plasmon resonance on immobilized biotinylated TTR; assay type: binding; conditions: SPR
Method: To an ice-cold solution of TTR (20 μM) in PBS was added EZ-Link Sulfo-NHS-LC-Biotin at a ratio of ˜2:1 (biotin:TTR) (minimal biotinylation) and the solution was incubated at room temperature. After 1 hour, un-reacted biotin was removed by passing the sample over a fast (FPLC) desalting column (Superdex™ 75) equilibrated with PBS.
SPR measurements were performed at 25° C. using a Biacore T100 (GE Healthcare) instrument equilibrated in 1% DMSO in PBS as a running buffer. After pretreatment of the streptavidin-coated chip (Sensor Chop SA, Biacore), ˜4000 RU biotinylated TTR was immobilized on one channel leaving the second flow channel as a blank (streptavidin alone) control. For binding measurements, HTS hits were diluted in running buffer (1% DMSO/PBS) and different dilution series were flowed over the chip at 50 μL/min ([…], 600 s wash). A zero concentration sample was used as a negative control. The kinetic data was fitted to a one-to-one binding model using Biacore T100 evaluation software.

[7] = target: T1, TTR; assay: FP saturation binding experiment; conditions: FITC alone
Method: The binding of probe 5 for TTR was evaluated as follows. […] The samples were allowed to equilibrate by agitation for 20 min at room temperature. Fluorescence polarization (excitation λ 485 nm, emission λ 525 nm, Cutoff λ 515 nm) measurements were taken using SpectraMax M5 Microplate Reader (Molecular Devices). […] Nonspecific FP, produced by the free fluorescent probe 5 as well as by binding of 5 to the plate, was equal to 70±10 mP.

O=[N+]([O-])c1cc(O)c(O)c([N+](=O)[O-])c1 [3,5-dinitrocatechol]
Prevention of WT TTR-induced cytotoxicity [1]: poor inhibitor | Prevention of V1221 TTR-induced cytotoxicity [2]: poor inhibitor

O=C(O)c1ccc(-c2c(F)cccc2F)cc1 [Compound 1]
FP Kapp (apparent binding constant) [3]: 0.231 μM and 0.231 (R^2 = 0.997) μM

O=C(O)c1ccccc1Nc1cc(Cl)c(OCCOCCOCCNC(=S)Nc2ccc3c(c2)C(=O)OC32c3ccc(O)cc3Oc3cc(O)ccc32)c(Cl)c1 [Compound 5, 2-(3,5-dichloro-4-(2-(2-(2-(3-(3′,6′-dihydroxy-3-oxo-3H-spiro[isobenzofuran-1,9′-xanthene]-5-yl)thioureido)ethoxy)ethoxy)ethoxy)phenylamino)benzoic acid]
Fold decrease in binding affinity to TTR on attaching FITC to 4 [4]: ~3 fold

Cc1n[nH]c(C)c1CCc1nc2c3ccccc3[nH]c(=O)n2n1 [Compound 15]
Inhibition of fibril formation at substoichiometric ligand ([5]; ligand 3.0 μM, TTR 3.6 μM, monitored over 5 days): > 75%

O=C(O)Cc1ccccc1Nc1c(Cl)cccc1Cl [Diclofenac]
target residence time, fold lower than 7 [6]: ~40 × | FP Kapp (apparent binding constant) [3]: 4.66 µM

O=C(O)c1cccnc1Nc1cccc(C(F)(F)F)c1 [Niflumic acid, niflumic acid]
Prevention of V1221 TTR-induced cytotoxicity [2]: relatively poor inhibitor

O=C(c1cc(O)c(O)c([N+](=O)[O-])c1)c1ccccc1F [Ro 41-0960]
Inhibition of fibril formation at substoichiometric ligand [5]: > 75% | Prevention of WT TTR-induced cytotoxicity [1]: completely prevented TTR-induced cytotoxicity | Prevention of V1221 TTR-induced cytotoxicity [2]: completely prevented TTR-induced cytotoxicity

fluorescein isothiocyanate [FITC]
Change in FP signal upon addition of TTR [7]: no change in the FP signal
